Data on 40 compounds can be found in publication PMC13266984 (Journal of medicinal chemistry, 2026).

The AC50 is the concentration at which the activity in the assay is half-maximal. Low readings indicate activity at low concentration, high ones activity only at high concentration.

The assay deals with T1, Human ALDH3A1 (Homo sapiens, UniProt P30838).
T1 sequence (P30838 1-453): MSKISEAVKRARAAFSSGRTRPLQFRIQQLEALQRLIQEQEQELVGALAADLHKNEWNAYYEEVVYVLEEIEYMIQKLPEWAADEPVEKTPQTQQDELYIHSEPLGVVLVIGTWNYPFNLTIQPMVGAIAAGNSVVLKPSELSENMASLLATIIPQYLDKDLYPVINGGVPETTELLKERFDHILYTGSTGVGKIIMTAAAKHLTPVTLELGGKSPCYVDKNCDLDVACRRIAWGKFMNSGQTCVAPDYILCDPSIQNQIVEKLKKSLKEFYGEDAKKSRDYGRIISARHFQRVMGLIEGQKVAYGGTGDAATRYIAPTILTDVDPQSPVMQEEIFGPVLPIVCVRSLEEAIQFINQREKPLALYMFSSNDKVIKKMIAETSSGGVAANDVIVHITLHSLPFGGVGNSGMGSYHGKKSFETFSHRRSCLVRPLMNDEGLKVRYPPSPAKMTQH
As to the kind of experiment: ALDH3A1 biochemical assay (benzaldehyde/NADP+, diaphorase-resazurin readout, 1,536-well). The following applies: for CC-v2: curve class. Background: The colour change of resazurin is a common sign of viable cells or microbes.

`O=C(NCc1cccc(F)c1)c1csc(N2CCN(c3ccc(Cl)cc3)CC2)n1` [Compound 1] had an AC50 of 0.71 µM. Under “Table S2, in-house analogs”, this compound showed an Efficacy of -61.67 and a CC-v2 of -1.2.
In the same order, the values of `COc1cccc(N2CCN(c3nc(C(=O)NCc4cccc(C)c4)cs3)CC2)c1` [Compound 2] are 2.51 µM, -72.54 and -1.2.
The corresponding values for `COc1cccc(N2CCN(c3nc(C(=O)NCc4ccco4)cs3)CC2)c1` [Compound 3] are 12.6 µM, -54.71 and -2.2.
As to `CC(=O)Nc1ccc(CN2CC(Oc3ccc4c(c3)OCO4)C2)cc1` [NCGC00373680-01], the AC50 stood at 7.94 µM. For the setting “Table S1, primary screen”, this compound registered an Efficacy of -29.03 and a CC-v2 of -1.4.
`COc1ccc(CN2C[C@@H](F)[C@@H](OCc3nc4cnccc4[nH]3)C2)cc1` [NCGC00391075-01] returned an AC50 of 15.8 µM. Further, where the note is “Table S2, in-house analogs”, the Efficacy is reported as -69.78 and the CC-v2 is -2.4.
The corresponding values for `COC(=O)c1ccc2nc(CO[C@H]3CN(Cc4ccc5ccccc5n4)C[C@H]3F)[nH]c2c1` [NCGC00391159-01] are 0.79 µM, -109.85 and -1.1.
In the same order, the values of `COc1ccc(-n2nc(C)c([C@@H]3C=C[C@@H](NCc4ccccc4)C3)c2C)cc1` [NCGC00391544-01] are 25.1 µM, -31.39 and -2.4.
The corresponding values for `COc1ccc(-n2nc(C)c([C@@H]3C=C[C@@H](NCc4cccc(Cl)c4)C3)c2C)cc1` [NCGC00391691-01] are 22.4 µM, -46.23 and -2.2.
As for `COC(=O)c1ccc2nc(CO[C@H]3CN(C(=O)C4CCOCC4)C[C@H]3F)[nH]c2c1` [NCGC00392526-01], the half-maximal activity concentration (AC50) was found to be 28.2 µM. In addition, under “Table S2, in-house analogs”, the Efficacy was -67.89 and the CC-v2 was -3.
As for `Cc1nn(-c2ccc(C(F)(F)F)cc2)c(C)c1[C@@H]1C=C[C@@H](NCc2ccc(N(C)C)cc2)C1` [NCGC00392637-01], the AC50 worked out at 12.6 µM. Where the note is “Table S2, in-house analogs”, this compound yielded an Efficacy of -37.26 and a CC-v2 of -2.2.
The corresponding values for `COC(=O)c1ccc2nc(CO[C@H]3CN(C(C)=O)C[C@H]3F)[nH]c2c1` [NCGC00392964-01] are 0.32 µM, -32.94 and -1.2.
Consider `COC(=O)c1ccc2nc(CO[C@H]3CN(C4CCOCC4)C[C@H]3F)[nH]c2c1` [NCGC00392980-01], for which the AC50 was 0.18 µM. Under “Table S2, in-house analogs”, this compound gave an Efficacy of -21.56 and a CC-v2 of -1.4.
`COC(=O)c1ccc2nc(CO[C@H]3CN(Cc4ccc(C(F)(F)F)cc4)C[C@H]3F)[nH]c2c1` [NCGC00392986-01] returned an AC50 of 28.2 µM. For the setting “Table S2, in-house analogs”, this compound returned an Efficacy of -62.94 and a CC-v2 of -2.2.
Compound `Cc1ccc2[nH]c(CO[C@H]3CN(Cc4ccc(F)c(F)c4)C[C@H]3F)nc2c1` [NCGC00392991-01] had an AC50 of 4.47 µM. Under “Table S2, in-house analogs”, this compound gave an Efficacy of -26.14 and a CC-v2 of -2.4.
The corresponding values for `Cc1ccc2[nH]c(CO[C@H]3CN(C4CCOCC4)C[C@H]3F)nc2c1` [NCGC00392993-01] are 0.32 µM, -23.33 and -1.4.
The corresponding values for `Fc1ccc2[nH]c(CO[C@H]3CN(Cc4ccc5ccccc5n4)C[C@H]3F)nc2c1` [NCGC00393065-01] are 0.45 µM, -92.90 and -1.1.
In the same order, the values of `COc1ccc(-n2nc(C)c([C@@H]3C=C[C@@H](NCc4ccc(N(C)C)cc4)C3)c2C)cc1` [NCGC00394616-01] are 28.2 µM, -105.83 and -2.1.
For the compound `Cc1cc(Cl)ccc1-n1nc(C)c([C@@H]2C=C[C@@H](NC(=O)c3ccc(N(C)C)cc3)C2)c1C` [NCGC00394621-01], the half-maximal activity concentration (AC50) was determined as 3.98 µM. Also, under “Table S2, in-house analogs”, the Efficacy is recorded as -97.74 and the CC-v2 is reported as -1.1.
Compound `COCC(=O)Nc1ncncc1-c1noc([C@@H]2CCCN2Cc2cc(OC)c(OC)c(OC)c2)n1` [NCGC00394846-01] showed an AC50 of 15.8 µM. Under “Table S1, primary screen”, this compound returned an Efficacy of -70.18 and a CC-v2 of -2.2.
As for `Cc1ccc(-n2nc(C)c([C@@H]3C=C[C@@H](NCc4ccc(N(C)C)cc4)C3)c2C)cc1Cl` [NCGC00395823-01], the activity was half-maximal at 14.1 µM (AC50). For the setting “Table S2, in-house analogs”, the Efficacy was -101.87 and the CC-v2 is recorded as -2.1.
As for `C[S+](=O)([O-])c1ccc(CN2C[C@H](O)C[C@H]2c2nc(C3CC3)no2)cc1` [NCGC00396353-01], the AC50 stood at 35.5 µM. In addition, where the note is “Table S1, primary screen”, the Efficacy is -44.61 and the CC-v2 was -2.2.
The compound `Cc1nn(Cc2ccccc2)c(C)c1[C@@H]1C=C[C@@H](NC(=O)c2ccco2)C1` [NCGC00397524-03] displayed an AC50 of 3.16 µM. Moreover, under “Table S2, in-house analogs”, the Efficacy was -51.19 and the CC-v2 is listed as -1.2.
Compound `NC(=O)[C@H](Cc1ccc(O)cc1)NC(=O)[C@@]1(O)C[C@@H](O)[C@H](O)[C@@H](NC(=O)c2ccc(F)c(Cl)c2)C1` [NCGC00398197-01] yielded an AC50 of 35.5 µM. For the setting “Table S1, primary screen”, the Efficacy is -17.95 and the CC-v2 is given as -2.4.
The corresponding values for `COc1ccc(NC(=O)N[C@H]2C[C@@H](C(=O)N[C@@H](Cc3cccs3)C(N)=O)N(C(=O)CSC)C2)cc1` [NCGC00398253-01] are 14.1 µM, -63.09 and -2.2.
The compound `COc1cccc(NC(=O)O[C@@H]2CO[C@H]3[C@@H]2OC[C@@H]3Nc2nccc(-c3ccccc3)n2)c1` [NCGC00398388-01] yielded an AC50 of 28.2 µM. Moreover, where the note is “Table S1, primary screen”, the Efficacy is listed as -30.64 and the CC-v2 is -2.4.
The compound `Cc1nn(CCC#N)c(C)c1[C@@H]1C=C[C@@H](NC(=O)Nc2ccc(Cl)cc2)C1` [NCGC00399959-01] gave an AC50 of 28.2 µM. Besides, for the setting “Table S2, in-house analogs”, the Efficacy is reported as -62.15 and the CC-v2 is reported as -2.2.
On to `COc1ccc(NC(=O)N[C@@H]2C=C[C@@H](c3c(C)nn(CCC#N)c3C)C2)cc1` [NCGC00399960-01], for which the AC50 turned out to be 14.1 µM. Where the note is “Table S2, in-house analogs”, this compound registered an Efficacy of -93.02 and a CC-v2 of -1.1.
`CNCc1cn(C[C@H]2O[C@@H](CC(=O)NCc3ccc(F)cc3)[C@H](O)[C@@H]2O)nn1` [NCGC00400077-01]: half-maximal activity (AC50) was put at 39.8 µM. Under “Table S1, primary screen”, this compound displayed an Efficacy of -39.06 and a CC-v2 of -2.2.
For `Cc1nn(Cc2ccccc2)c(C)c1[C@@H]1C=C[C@@H](NC(=O)Nc2ccccc2)C1` [NCGC00400191-01], the AC50 amounted to 22.4 µM. For the setting “Table S2, in-house analogs”, this compound had an Efficacy of -83.17 and a CC-v2 of -2.2.
The corresponding values for `Cc1nn(-c2ccc(C(C)C)cc2)c(C)c1[C@@H]1C=C[C@@H](NCc2ccc(F)cc2)C1` [NCGC00401594-01] are 12.6 µM, -91.30 and -2.2.
`COc1ccc(CNc2cc3c(cn2)CN(Cc2ccccc2)CCN3)cc1OC` [NCGC00411020-01] gave an AC50 of 14.1 µM. Also, where the note is “Table S1, primary screen”, the Efficacy is -49.01 and the CC-v2 was -2.2.
With `CNC(=O)c1cccc(-c2cnc3[nH]cc(CC(=O)N(C)c4ccccc4)c3c2)c1` [NCGC00412252-01], the AC50 was 0.25 µM. Further, where the note is “Table S2, in-house analogs”, the Efficacy is given as -26.81 and the CC-v2 is -1.4.
In the same order, the values of `CNC(=O)c1cccc(-c2cnc3[nH]cc(CC(=O)NCC(C)C)c3c2)c1` [NCGC00412294-01] are 12.6 µM, -83.58 and -1.1.
In turn, `CNC(=O)c1cccc(-c2cnc3[nH]cc(CC(=O)Nc4ccccc4C)c3c2)c1` [NCGC00412345-01] returned an AC50 of 5.62 µM. For the setting “Table S2, in-house analogs”, this compound displayed an Efficacy of -73.33 and a CC-v2 of -2.4.
`CNC(=O)c1cccc(-c2cnc(Nc3cncnc3)c3c2CCO3)c1` [NCGC00412778-01]: the AC50 is 44.7 µM. Under “Table S1, primary screen”, this compound gave an Efficacy of -38.45 and a CC-v2 of -2.2.
In turn, `CC1(COCC2CC2)COc2ccc(C(=O)Nc3cccc([S+](C)(=O)[O-])c3)cc2N1` (stereo not drawn) [NCGC00416184-01] had an AC50 of 35.5 µM. Under “Table S1, primary screen”, this compound came in with an Efficacy of -42.40 and a CC-v2 of -2.4.
`COc1cccc(-c2cc(C(=O)NCc3cnn(C)c3)c3c(c2)N(C)CCO3)c1OC` [NCGC00417015-01] yielded a concentration at half-maximal activity (AC50) of 17.8 µM. Further, where the note is “Table S2, in-house analogs”, the Efficacy is listed as -40.16 and the CC-v2 is recorded as -2.2.
The corresponding values for `CN1CCOc2c(C(=O)NCCC(N)=O)cc(-c3ccc(O)c(F)c3)cc21` [NCGC00417031-01] are 14.1 µM, -80.78 and -2.2.
In the same order, the values of `COc1cc(F)ccc1-c1cc(C(=O)NCCC(N)=O)c2c(c1)N(C)CCO2` [NCGC00417040-01] are 20 µM, -27.04 and -2.4.
In the same order, the values of `CN1CCOc2c(C(=O)NCCC(N)=O)cc(-c3ccc(CO)cc3)cc21` [NCGC00417044-01] are 17.8 µM, -40.76 and -2.2.
